Test results: patent US20250041367A1, “BACTERIOPHAGES AND USE THEREOF FOR THE TREATMENT OR PREVENTION OF INFECTION CAUSED BY E. COLI” (Purdue Research Foundation, priority 2023, published 2025)
Entries after “also recorded” stand apart in the source; their conditions may differ.

How the values were obtained:
[1] = tested on: E. coli serotype O2:H6 (APEC); assay: Host range spot assay; type: cell-based, Escherichia coli; conditions: E. coli serotype O2:H6, scale 0-3
Protocol: (§1) The host range of each bacteriophage type was determined by performing spot assays using each of the ten distinct APEC serotypes mentioned above. Spot assays were performed as known in the art (Barrow et al., 1998, Clinical and Diagnostic Laboratory Immunology, 5 (3), 294-298). 100 μL aliquots of log-phase bacterial cultures were combined with 67.5 μL 1M CaCl2) and 4 mL LB overlay, mixed briefly, and poured over LB agar plates. Once the overlay had solidified, 5 μL aliquots of individual phage types were applied (i.e., spotted) onto the plates, and plates were incubated at 37° C. overnight. Plates were assessed for clearings the following day and the degree of lysis was measured using a four-point scale in which 0 indicated no lysis, 1.0 indicated some lysis, 2.0 indicated moderate lysis, and 3 indicated complete lysis. Spot assays were conducted in triplicate for each phage and APEC strain.

[2] = tested on: E. coli serotype O78:H51 (APEC); assay: Host range spot assay; type: cell-based, Escherichia coli; set-up: key: — indicates no lysis at all; 0.1-1.0 indicates that the phage is semi-lytic; 1.1-2.0 indicates moderate lysis of bacteria; 2.1-3.0 indicates complete lysis of bacteria and formation of a transparent, circular clearing on the bacterial lawn; conditions: E. coli serotype O78:H51, scale 0-3
Protocol: as §1

[3] = tested on: E. coli serotype O1:H7 (APEC); assay: Host range spot assay; type: cell-based, Escherichia coli; set-up: key: — indicates no lysis at all; 0.1-1.0 indicates that the phage is semi-lytic; 1.1-2.0 indicates moderate lysis of bacteria; 2.1-3.0 indicates complete lysis of bacteria and formation of a transparent, circular clearing on the bacterial lawn; conditions: E. coli serotype O1:H7, scale 0-3
Protocol: as §1

[4] = tested on: E. coli serotype O2:H4 (APEC); assay: Host range spot assay; type: cell-based, Escherichia coli; set-up: key: — indicates no lysis at all; 0.1-1.0 indicates that the phage is semi-lytic; 1.1-2.0 indicates moderate lysis of bacteria; 2.1-3.0 indicates complete lysis of bacteria and formation of a transparent, circular clearing on the bacterial lawn; conditions: E. coli serotype O2:H4, scale 0-3
Protocol: as §1

[5] = tested on: E. coli serotype O78 (APEC); assay: Host range spot assay; type: cell-based, Escherichia coli; set-up: key: — indicates no lysis at all; 0.1-1.0 indicates that the phage is semi-lytic; 1.1-2.0 indicates moderate lysis of bacteria; 2.1-3.0 indicates complete lysis of bacteria and formation of a transparent, circular clearing on the bacterial lawn; conditions: E. coli serotype O78, scale 0-3
Protocol: as §1

[6] = tested on: E. coli serotype O6:H31 (APEC); assay: Host range spot assay; type: cell-based, Escherichia coli; set-up: key: — indicates no lysis at all; 0.1-1.0 indicates that the phage is semi-lytic; 1.1-2.0 indicates moderate lysis of bacteria; 2.1-3.0 indicates complete lysis of bacteria and formation of a transparent, circular clearing on the bacterial lawn; conditions: E. coli serotype O6:H31, scale 0-3
Protocol: as §1

[7] = tested on: E. coli serotype O1:H23 (APEC); assay: Host range spot assay; type: cell-based, Escherichia coli; set-up: key: — indicates no lysis at all; 0.1-1.0 indicates that the phage is semi-lytic; 1.1-2.0 indicates moderate lysis of bacteria; 2.1-3.0 indicates complete lysis of bacteria and formation of a transparent, circular clearing on the bacterial lawn; conditions: E. coli serotype O1:H23, scale 0-3
Protocol: as §1

[8] = tested on: E. coli serotype O5 (APEC); assay: Host range spot assay; type: cell-based, Escherichia coli; set-up: key: — indicates no lysis at all; 0.1-1.0 indicates that the phage is semi-lytic; 1.1-2.0 indicates moderate lysis of bacteria; 2.1-3.0 indicates complete lysis of bacteria and formation of a transparent, circular clearing on the bacterial lawn; conditions: E. coli serotype O5, scale 0-3
Protocol: as §1

[9] = tested on: E. coli serotype O78:H9 (APEC); assay: Host range spot assay; type: cell-based, Escherichia coli; set-up: key: — indicates no lysis at all; 0.1-1.0 indicates that the phage is semi-lytic; 1.1-2.0 indicates moderate lysis of bacteria; 2.1-3.0 indicates complete lysis of bacteria and formation of a transparent, circular clearing on the bacterial lawn; conditions: E. coli serotype O78:H9, scale 0-3
Protocol: as §1

[10] = tested on: E. coli serotype O2 (APEC); assay: Host range spot assay; type: cell-based, Escherichia coli; set-up: key: — indicates no lysis at all; 0.1-1.0 indicates that the phage is semi-lytic; 1.1-2.0 indicates moderate lysis of bacteria; 2.1-3.0 indicates complete lysis of bacteria and formation of a transparent, circular clearing on the bacterial lawn; conditions: E. coli serotype O2, scale 0-3
Protocol: as §1

[11] = Phage stability in simulated gastric fluid (SGF); type: physicochemical; conditions: for phage concentration lower in SGF-exposed than in PBS-exposed samples: 90 minutes of exposure; for phage concentration, unencapsulated, SGF-exposed: SGF pH 2.5 with pepsin; for phage concentration, unencapsulated, SGF-exposed / phage concentration, unencapsulated, PBS-treated: 41° C.; for phage concentration, unencapsulated, PBS-treated: 1×PBS control
Protocol: The stability of bacteriophages in gastric environments was tested by exposing both encapsulated and unencapsulated bacteriophages to simulated gastric fluid (SGF; 0.32% pepsin (w/v) in 0.2% NaCl; pH 2.5) and to 1×PBS (Moghtader et al., 2016). In this experiment, unencapsulated phages (0.5 mL, in concentrations ranging from 1×10^9 to 4×10^8 PFU/mL depending on the phage type) were added to 4.5 mL of either SGF or PBS (5 replicates per treatment) and incubated at 41° C. This temperature was chosen as it is a typical internal temperature for chickens. Encapsulated phages (0.5 g, in concentrations ranging from 2×10^9 to 2×10^8 PFU/mL depending on the phage type) were also added to 4.5 mL of either SGF or PBS (5 replicates per treatment) and incubated at 41° C. Aliquots (100 μL) were collected from each unencapsulated phage sample after 5, 15, 30, 60, and 90 minutes of exposure to SGF or PBS. These aliquots were serially diluted, and phage concentrations were measured by standard plaque assay. At 15, 30, 60, and 90 minutes post-SGF or PBS exposure, microencapsulated phages were washed with SM buffer to remove residual SGF or PBS and then dissolved in a dissolving solution. Aliquots of the dissolved microcapsules were serially diluted and phage concentrations were measured by standard plaque assay. This experiment was conducted in triplicate for each phage type. Samples containing SGF and unencapsulated bacteriophages were serially diluted without washing and phage concentrations were measured by standard plaque assay as described above. Concentrations of viable phages after exposure to SGF or PBS for a given length of time were then compared.

Substance | degree of lysis [1] | degree of lysis [2] | degree of lysis [3] | degree of lysis [4] | degree of lysis [5] | degree of lysis [6] | degree of lysis [7] | degree of lysis [8] | degree of lysis [9] | degree of lysis [10] | phage concentration, encapsulated, PBS-exposed ([11]; encapsulated phage, 60 minutes) [log10 PFU/mL] | phage concentration, encapsulated, PBS-exposed ([11]; encapsulated phage, 90 minutes) [log10 PFU/mL] | phage concentration, encapsulated, SGF-exposed ([11]; encapsulated phage, 60 minutes) [log10 PFU/mL] | phage concentration, encapsulated, SGF-exposed ([11]; encapsulated phage, 90 minutes) [log10 PFU/mL] | phage concentration lower in SGF-exposed than in PBS-exposed samples ([11]; unencapsulated phage) [log10 PFU/mL] | phage concentration SGF-exposed versus PBS-exposed ([11]; unencapsulated phage, after 5 and 15 minutes of exposure, P>0.05) | phage concentration SGF-exposed versus PBS-exposed ([11]; unencapsulated phage, after 30, 60, and 90 minutes of exposure, P<0.05) | phage concentration, unencapsulated, SGF-exposed ([11]; unencapsulated phage) | phage concentration lower in SGF-exposed than in PBS-exposed samples ([11]; encapsulated phage) [log10 PFU/mL] | phage concentration, unencapsulated, PBS-treated ([11]; unencapsulated phage) [log10 PFU/mL]
Escherichia phage vB_Eco_AHP | 2.7 | — | 3.0 | — | — | 3.0 | 3.0 | — | — | — | 9.23 | 9.19 | 9.21 | 8.12 | 2.35 | No significant differences | significantly lower |  |  | 
Escherichia phage vB_Eco_AKA | 1.7 | 1.0 | — | — | 1.3 | 3.0 | 1.0 | 1.7 | — | 2.7 | 8.27 | 8.22 | 8.17 | 7.3 |  |  |  | could not be detected; also recorded: not detectable |  | 
Escherichia phage vB_Eco_AHC | 2.0 | 1.0 | — | — | 1.7 | 2.7 | 1.0 | 1.7 | — | 3.0 | 8.31 | 8.23 | 8.13 | 7.15 |  |  |  | could not be detected; also recorded: not detectable |  | 
Escherichia phage vB_Eco_MIA | 2.3 | 1.0 | — | — | 2.0 | 2.7 | 1.0 | 1.7 | — | 3.0 | 8.27 | 8.27 | 8.14 | 7.34 |  |  |  | could not be detected; also recorded: not detectable |  | 
Escherichia phage vB_Eco_MP_2 [MP2] | 3.0 | — | — | 3.0 | — | — | — | — | — | — | 9.15 | 9.07 | 9.11 | 8.41 | 4.5 |  |  | 7.72 log10 PFU/mL | 0.74 | 9.05
Escherichia phage vB_Eco_MP_1 [MP1] | 2.7 | — | — | 2.7 | — | — | — | — | — | — | 9.23 | 9.19 | 9.09 | 8.11 | 3.9 |  |  | 8.71 log10 PFU/mL | 0.97 | 9.27
